The results in this text go back to patent US20130296311A1, “INHIBITORS OF HCV NS5A” (PRESIDIO PHARMACEUTICALS, INC., priority 2010, published 2013).

Bounds are passed on as bounds.

One assay concerns HCV 1b_Huh-Luc/Neo-ET cell line persistently expressing a bicistronic genotype 1b replicon in Huh 7 cells. The assay is described as follows: HCV replicon assay (luciferase readout, 72 h). Format: cell-based, HCV genotype 1b. Particulars: Hepatitis C virus, Huh-7, 72 h, read-out: Inhibition of HCV genotype 1b. In short, it runs like this:
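EC50 values come from a four-parameter fit of luciferase signal as % of untreated control, repeated across several determinations. The signal is from the HCV 1b_Huh-Luc/Neo-ET replicon line, dosed in triplicate one day post-plating and incubated 72 h before Bright-Glo readout.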
(In general: A replicon is a self-replicating genome or part of one, used to study replication in cells.)
For `CC(C)(C)OC(=O)N[C@@H](C(=O)N1CCC[C@H]1c1ncc(-c2ccc(C#Cc3ccc4nc([C@@H]5CCCN5C(=O)[C@H](NC(=O)OC(C)(C)C)c5ccccc5)[nH]c4c3)cc2)[nH]1)c1ccccc1` [Compound 801], the EC50 was less than 1 nM.
As to `COC(=O)N[C@@H](C(=O)N1CCC[C@H]1c1ncc(C#Cc2ccc(-c3ccc(-c4cnc([C@@H]5CCCN5C(=O)[C@H](NC(=O)C5CC5)c5ccccc5)[nH]4)cc3)cc2)[nH]1)c1ccccc1` [Compound 754], the EC50 was less than 1 nM.
As to `COC(=O)N[C@H](C(=O)N1CCC[C@H]1c1ncc(-c2cc(C)c(C#Cc3ccc4nc([C@@H]5CCCN5C(=O)[C@@H](NC(=O)OC)C(C)C)[nH]c4c3)c(C)c2)[nH]1)C(C)C` [Compound 1060], the EC50 is less than 1 nM.
On to `COC(=O)N[C@H](C(=O)N[C@@H](C)c1ncc(-c2ccc(C#Cc3ccc(-c4cnc([C@H](C)NC(=O)[C@@H](NC(=O)OC)[C@@H](C)O)[nH]4)cc3)cc2)[nH]1)[C@@H](C)O` [Compound 969], for which the EC50 is less than 1 nM.
The same measure, in the same setting: in the case of `O=C(N[C@@H](C(=O)N1CCC[C@H]1c1ncc(-c2ccc(C#Cc3ccc(-c4cnc([C@@H]5CCCN5C(=O)[C@@H](c5ccccc5)N5CCOCC5)[nH]4)cc3)cc2)[nH]1)c1ccccc1)C1CC1` [Compound 237] it was less than 1 nM.
As for `COC(=O)N[C@H](C(=O)N1CCC[C@H]1c1ncc(-c2ccc(C#Cc3ccc(-c4cnc([C@@H]5CCCN5C(=O)[C@@H](c5ccccc5)N5CCN(C)CC5)[nH]4)cc3)cc2)[nH]1)C(C)C` [Compound 957], the EC50 was less than 1 nM.
Consider `COC(=O)N[C@@H](C(=O)N1CCC[C@H]1c1ncc(-c2ccc(C#Cc3ccc(-c4cnc([C@@H]5CCCN5C(=O)[C@H](NC(=O)N5CCC[C@@H]5C)c5ccccc5)[nH]4)cc3)cc2)[nH]1)c1ccccc1` [Compound 261], for which the EC50 was less than 1 nM.
Take `CCN(CC)[C@@H](C(=O)N1CCC[C@H]1c1ncc(-c2ccc(C#Cc3ccc(-c4cnc([C@@H]5CCCN5C(=O)[C@@H](c5ccccc5)N(CC)CC)[nH]4)cc3)cc2)[nH]1)c1ccccc1` [Compound 173]: the EC50 is less than 1 nM.
Still for that read-out and setting: in the case of `COC(=O)N[C@H](C(=O)N1CCC[C@H]1c1ncc(-c2ccc(C#Cc3ccc4nc([C@@H]5CCCN5C(=O)[C@@H](NC(=O)OC)[C@@H](C)O)[nH]c4c3)cc2)[nH]1)[C@@H](C)O` [Compound 863] it was less than 1 nM; in that of `COC(=O)N[C@@H](C(=O)N1CCC[C@H]1c1ncc(-c2ccc(C#Cc3ccc(C(=O)NC[C@@H]4CCCN4C(=O)[C@@H](c4ccccc4)N(C)C)cc3)cc2)[nH]1)c1ccccc1` [Compound 234], less than 1 nM.
Turning to `COC(=O)N[C@@H](C(=O)N1CCC[C@H]1c1ncc(-c2ccc3nc(C#Cc4ccc5nc([C@@H]6CCCN6C(=O)[C@H](NC(=O)OC)c6ccccc6)[nH]c5c4)ccc3c2)[nH]1)c1ccccc1` [Compound 1109], the EC50 was less than 1 nM.
In the case of `CN(C)[C@@H](C(=O)N1CCC[C@H]1c1ncc(-c2ccc(C#Cc3ccc(-c4cnc([C@@H]5CCCN5C(=O)[C@H](NC(=O)C5CC5)c5ccccc5)[nH]4)cc3)cc2)[nH]1)c1ccccc1` [Compound 215], the EC50 was less than 1 nM.
Turning to `COC(=O)N[C@H](C(=O)N1CCC[C@H]1c1ncc(-c2ccc(C#Cc3ccc(-c4cnc([C@@H]5CCCN5C(=O)[C@@H](NC(=O)OC)C(C)C)[nH]4)cc3)cc2)[nH]1)C(C)C` [Compound 266], the EC50 is less than 1 nM.
`COC(=O)N[C@H](C(=O)N1CCC[C@H]1c1nc(-c2cnc3cc(C#Cc4ccc(-c5cnc([C@@H]6CCCN6C(=O)[C@@H](NC(=O)OC)c6ccccc6)[nH]5)cc4)ccc3c2)c[nH]1)c1ccccc1` [Compound 1089]: the EC50 was 10 to 999 nM.
Still for that read-out and setting: to `COC(=O)N[C@H](C(=O)N1CCC[C@H]1c1ncc(-c2ccc(C#Cc3ccc(-c4cnc([C@@H]5CCCN5C(=O)[C@@H](NC(=O)OC)[C@@H](C)O)[nH]4)cc3)cc2)[nH]1)C(C)C` [Compound 971] belongs less than 1 nM; to `CN(C)C(=O)N[C@@H](C(=O)N1CCC[C@H]1c1cc(-c2ccc(C#Cc3ccc(-c4cnc([C@@H]5CCCN5C(=O)[C@H](NC(=O)N(C)C)c5ccccc5)[nH]4)cc3)cc2)n[nH]1)c1ccccc1` [Compound 221], less than 1 nM; to `CC(C)[C@@H](NC(=O)OC(C)(C)C)C(=O)N1CCC[C@H]1C(=O)NCc1ccc(C#Cc2cnc([C@@H]3CCCN3C(=O)[C@H](NC(=O)OC(C)(C)C)C(C)C)[nH]2)cc1` [Compound 120], 10 to 999 nM.
Same read-out and setting: to `COC(=O)N[C@@H](C(=O)N1CCC[C@H]1c1ncc(-c2ccc(C#Cc3ccc(-c4cnc([C@@H]5CCCN5C(=O)C5CCN(C)CC5)[nH]4)cc3)cc2)[nH]1)c1ccccc1` [Compound 182] belongs less than 1 nM.
Take `COC(=O)N[C@H](C(=O)N1CCC[C@H]1c1ncc(-c2ccc(C#Cc3ccc(-c4cnc([C@@H]5CCCN5C(=O)[C@@H](c5ccccc5)N5CCOCC5)[nH]4)cc3)cc2)[nH]1)C(C)C` [Compound 987]: the EC50 was less than 1 nM.
Still for that read-out and setting: to `O=C(N[C@@H](C(=O)N1CCC[C@H]1c1nc(-c2ccc3cc(C#Cc4cnc([C@@H]5CCCN5C(=O)[C@H](NC(=O)N5CC[C@@H](O)C5)c5ccccc5)[nH]4)ccc3c2)c[nH]1)c1ccccc1)N1CC[C@@H](O)C1` [Compound 807] belongs 1 to 9.9 nM.
Same read-out and setting: to `CNC(=O)N[C@@H](C(=O)N1CCC[C@H]1c1ncc(C#Cc2ccc(C#Cc3cnc([C@@H]4CCCN4C(=O)[C@H](NC(=O)NC)c4ccccc4)[nH]3)cc2)[nH]1)c1ccccc1` [Compound 307] belongs less than 1 nM.
For the compound `CN(C)[C@@H](C(=O)N1CCC[C@H]1c1ncc(-c2ccc(C#Cc3ccc(-c4cnc([C@@H]5CCCN5C(=O)[C@@H](c5ccccc5)N(C)C)[nH]4)cc3)cc2)[nH]1)c1ccccc1` [Compound 160], the EC50 was less than 1 nM.
Consider `C=CC[C@H](NC(=O)OC)C(=O)N1CCC[C@H]1c1nc2ccc(C#Cc3ccc4c(c3)CCc3nc([C@@H]5CCCN5C(=O)[C@@H](NC(=O)OC)C(C)C)[nH]c3-4)cc2[nH]1` [Compound 1105], for which the EC50 was less than 1 nM.
Regarding `CC[C@@H](C(=O)N1CCC[C@H]1c1ncc(-c2ccc(C#Cc3ccc(-c4cnc([C@@H]5CCCN5C(=O)[C@H](NC(=O)OC)c5ccccc5)[nH]4)cc3)cc2)[nH]1)c1ccccc1` [Compound 258], the EC50 is less than 1 nM.
As to `COC(=O)N[C@@H](CC(N)=O)C(=O)N1CCC[C@H]1c1ncc(-c2ccc(C#Cc3ccc4nc([C@@H]5CCCN5C(=O)[C@H](CC(N)=O)NC(=O)OC)[nH]c4c3)cc2)[nH]1` [Compound 1046], the EC50 fell in the range of 1 to 9.9 nM.
For `COC(=O)N[C@H](C(=O)N[C@@H](C)c1ncc(-c2ccc(C#Cc3ccc(-c4cnc([C@H](C)NC(=O)[C@@H](NC(=O)OC)C(C)C)[nH]4)cc3)cc2)[nH]1)C(C)C` [Compound 951], the EC50 is less than 1 nM.
Take `CO[C@@H](C(=O)N1CCC[C@H]1c1ncc(-c2ccc(C#Cc3ccc(-c4cnc([C@@H]5CCCN5C(=O)[C@H](OC)c5ccccc5)[nH]4)cc3)cc2)[nH]1)c1ccccc1` [Compound 172]: the EC50 is less than 1 nM.
For the compound `COC(=O)N[C@@H](C(=O)N1CCC[C@H]1c1ncc(C#Cc2ccc(-c3ccc(-c4cnc([C@@H]5CCCN5C(=O)[C@H](NC(=O)OC)c5ccccc5)[nH]4)cc3)cc2)[nH]1)c1ccccc1` [Compound 750], the EC50 was less than 1 nM.
With `COC(=O)N[C@H](C(=O)N1CCC[C@H]1c1ncc(-c2ccc(C#Cc3ccc(-c4cnc([C@@H]5CCCN5C(=O)[C@H](C(C)C)N(C)C)[nH]4)cc3)cc2)[nH]1)C(C)C` [Compound 953], the EC50 was in the range of 1 to 9.9 nM.
Still for that read-out and setting: in the case of `O=C(N[C@@H](C(=O)N1CCC[C@H]1c1ncc(-c2ccc(C#Cc3ccc(-c4cnc([C@@H]5CCCN5C(=O)[C@@H](c5ccccc5)N5CCCCC5)[nH]4)cc3)cc2)[nH]1)c1ccccc1)N1CCOCC1` [Compound 209] it was less than 1 nM.

Still in this assay, the particulars now being: Hepatitis C virus, Huh-7, read-out: Inhibition of HCV genotype 1b.
`CC[C@H](C)[C@H](NC(=O)OC)C(=O)N1CCC[C@H]1c1nc(C)c(C#Cc2ccc3cc(-c4cnc([C@@H]5CCCN5C(=O)[C@@H](NC(=O)OC)[C@@H](C)OC)[nH]4)ccc3c2)[nH]1` [Compound 1265]: the EC50 was less than 1 nM.
For `COC(=O)N[C@H](C(=O)N1CCC[C@H]1c1nc2c([nH]1)-c1ccc(C#Cc3ccc4nc([C@@H]5CCCN5C(=O)[C@H](NC(=O)OC)c5ccccc5)[nH]c4c3)cc1CCC2)C(C)C` [Compound 1281], the EC50 is less than 1 nM.
As to `COC[C@H](NC(=O)OC)C(=O)N1CCC[C@H]1c1nc2ccc3cc(C#Cc4ccc5nc([C@@H]6CCCN6C(=O)[C@@H](NC(=O)OC)C(C)C)[nH]c5c4)ccc3c2[nH]1` [Compound 1288], the EC50 was less than 1 nM.
Same read-out and setting: in the case of `COC[C@H](NC(=O)OC)C(=O)N1CCC[C@H]1c1nc2ccc(C#Cc3ccc(-c4cnc([C@@H]5CCCN5C(=O)[C@@H](NC(=O)OC)C(C)C)[nH]4)cc3)cc2[nH]1` [Compound 1243] it was less than 1 nM; in that of `COC(=O)NC(C(=O)N1CCC[C@H]1c1nc2ccc(C#Cc3ccc4cc(-c5cnc([C@@H]6CCCN6C(=O)[C@H](NC(=O)OC)c6ccccc6)[nH]5)ccc4n3)cc2[nH]1)C(C)C` (stereo partly drawn) [Compound 1289], less than 1 nM; in that of `COC(=O)N[C@H](C(=O)N1CCC[C@H]1c1nc(C(F)(F)F)c(C#Cc2ccc3cc(-c4cnc([C@@H]5CCCN5C(=O)[C@@H](NC(=O)OC)[C@@H](C)OC)[nH]4)ccc3c2)[nH]1)C(C)C` [Compound 1261], less than 1 nM.
`COC(=O)N[C@@H](C(=O)N[C@@H](C)c1ncc(-c2ccc(C#Cc3ccc4nc([C@@H]5CCCN5C(=O)[C@H](NC(=O)OC)c5ccccc5)[nH]c4c3)cc2)[nH]1)c1ccccc1` [Compound 1226]: the EC50 was less than 1 nM.
For `CC[C@@H](C)[C@H](NC(=O)OC)C(=O)N1CCC[C@H]1c1ncc(-c2ccc(C#Cc3ccc(-c4cnc([C@@H]5CCCN5C(=O)[C@@H](NC(=O)OC)[C@H](C)CC)[nH]4)cc3)cc2)[nH]1` [Compound 1217], the EC50 was less than 1 nM.
On the same count and under the same terms, in the case of `COC(=O)N[C@H](C(=O)N1CCC[C@H]1c1ncc(-c2ccc(C#Cc3ccc4nc([C@@H]5CCCN5C(=O)[C@@H](NC(=O)OC)C5CCCC5)[nH]c4n3)cc2)[nH]1)C1CCCC1` [Compound 1250] it was less than 1 nM.
